Test results from article PMC9019100, “Development of NanoLuc-targeting protein degraders and a universal reporter system to benchmark tag-targeted degradation platforms” (Nature Communications, 2022).
Several values for one entry are separate records, joined by “and”; a condition that tells them apart may be missing. Equal values may be shown once. Read-outs that look alike come from different tables or passages of the source.

Experiments:
[1] = target: MLKL-FKBP^F36V (Homo sapiens, UniProt P62942, F37V); assay type: cell-based; conditions: 5 h, low nM concentrations
Experimental: All experiments were repeated independently three times, and a representative Fig. is shown.
(§3) All timepoint experiments were performed as reverse timepoints in order to harvest all cells at the same time. At the indicated time points cells were lysed in NuPAGE LDS lysis buffer (Invitrogen) diluted to 1× in DISC lysis buffer (20 mM Tris-HCl pH7.5, 150 mM NaCl, 2 mM EDTA pH 8.0, 1% Triton X-100, 10% glycerol, H20)) supplemented with β-Mercaptoethanol (2%), protease and phosphatase inhibitors. Lysates were run through polypropylene columns (Pierce) to shred DNA. […] Membranes were blocked in 5% skim milk (Devondale) in TBS-T (TBS, 0.1% Tween-20) for 1 h prior to immunoblotting with primary antibodies overnight at 4 °C. Unless stated otherwise, all primary antibodies were diluted in TBS-T (TBS, 0.1% Tween-20) containing 5% BSA (Sigma A8022) and 0.04% sodium azide: HaloTag (1:1000, Promega; G9211), NanoLuc (1:500, Promega; N7000), β-actin (1:20,000, Sigma; A-1798), MLKL (1:1000, produced in-house; 3H1 clone)[39], FKBP (1:1000, R&D systems; 422513), caspase-8 (1:1000, Proteintech; 13423-1-AP), Histone H3 (1:1000, Abcam; ab10799), Cadherin (1:1000, Cell Signalling Technologies; 4068 T). Membranes were washed 3 × 5–10 min in TBS-T (TBS, 0.1% Tween-20) prior to the addition of the appropriate secondary antibodies conjugated with horseradish peroxidase (Jaxon laboratories). […]

[2] = target: T1, caspase-8-FKBP^F36V (Homo sapiens, UniProt P62942, F37V); assay type: cell-based; conditions: 5 h
T1 construct: expressed in transfected cells; host or cells: MLKL-/-CASP8-/- HT29, constitutive expression

[3] = tested on: MLKL^−/− HT29 cells expressing MLKL-FKBP^F36V; assay type: cell-based; conditions: for TNF+911+zVAD (PI exclusion): MLKL-/- + MLKL FKBPF36V, replicate columns
Experimental: Cell death was assessed by flow cytometric analysis of PI exclusion. […] Cell death was assessed by flow cytometric analysis of PI exclusion. […] Cell death was assessed by flow cytometric analysis of PI exclusion. e N = 4, f N = 3 independent experiments (symbols), EB represent mean ± SD. g Western from MLKL^−/−CASP8^−/− HT29 cells stably expressing the doxycycline-inducible C-terminal fusion protein, MLKL-NanoLuc (MLKL-NLuc) and constitutively expressing the C-terminal fusion protein caspase-8-FKBP^F36V. […] Cell death was assessed using an IncuCyte and Cytotox-Red uptake. N = 3 independent experiments, one representative experiment shown, EB represent mean ± SD.
Degrader compounds or a DMSO vehicle control were added for 5 h, as stated in the Fig. legends. Cells were detached using Trypsin-EDTA (Merck) and resuspended in cell supernatants containing 10 μg/mL propidium iodide (PI). PI exclusion analysis was performed using an LSR II flow cytometer (Becton Dickinson, NJ) with 10,000 single-cell events per sample. Flow cytometry data were analysed using WEASEL version 2.7 software (Frank Battye).

[4] = target: T2, murine MLKL-FKBP^F36V (Homo sapiens, UniProt P62942, F37V); assay type: cell-based; conditions: 31.2-500 nM, 5 h
T2 construct: expressed in transfected cells; host or cells: Mlkl-/- mouse dermal fibroblasts, doxycycline-inducible
Experimental: as §3

[5] = target: T3, MLKL-NanoLuc (Oplophorus gracilirostris, UniProt Q9GV45, A31E/A60N/A81I/F95D/I117V/K70R/L54V/L99Q/M102K/N193R/P142E/Q151K/Q38R/Q45L/V71I/Y165I); test: Western blot of MLKL^−/− HT29 cells expressing MLKL-NanoLuc; assay type: cell-based, human; conditions: 62.5-500 nM, 5 h
T3 construct: expressed in transfected cells; host or cells: MLKL-/- HT29 (A12); MLKL-/-CASP8-/- HT29 (A24); doxycycline-inducible
Experimental: (§1) Cells were seeded in 24-well plates ±doxycycline (20 ng/mL for HEK293T, 40 ng/mL for HT29) and incubated overnight (16–24 h) prior to degrader treatments, as stated in the Fig. legends. All timepoint experiments were performed as reverse timepoints in order to harvest all cells at the same time. At the indicated time points cells were lysed in NuPAGE LDS lysis buffer (Invitrogen) diluted to 1× in DISC lysis buffer (20 mM Tris-HCl pH7.5, 150 mM NaCl, 2 mM EDTA pH 8.0, 1% Triton X-100, 10% glycerol, H20)) supplemented with β-Mercaptoethanol (2%), protease and phosphatase inhibitors. Lysates were run through polypropylene columns (Pierce) to shred DNA. […] Membranes were blocked in 5% skim milk (Devondale) in TBS-T (TBS, 0.1% Tween-20) for 1 h prior to immunoblotting with primary antibodies overnight at 4 °C. Unless stated otherwise, all primary antibodies were diluted in TBS-T (TBS, 0.1% Tween-20) containing 5% BSA (Sigma A8022) and 0.04% sodium azide: HaloTag (1:1000, Promega; G9211), NanoLuc (1:500, Promega; N7000), β-actin (1:20,000, Sigma; A-1798), MLKL (1:1000, produced in-house; 3H1 clone)[39], FKBP (1:1000, R&D systems; 422513), caspase-8 (1:1000, Proteintech; 13423-1-AP), Histone H3 (1:1000, Abcam; ab10799), Cadherin (1:1000, Cell Signalling Technologies; 4068 T). […]
(§2) NC4. […] Cell death was assessed by flow cytometric analysis of PI exclusion. […]

[6] = target: Halo-EGFP-NanoLuc-FKBP^F36V (H-E-N-F) fusion protein (UniProt P0A3G2+P62942+Q9GV45, A155T/A167V/A172T/A224E/A31E/A60N/A81I/C128F/C176G/D78G/E160K/E257K/F37V/F95D/H272N/I117V/K175M/K195N/K70R/L47V/L54V/L88M/L99Q/M102K/N193R/N227D/P142E/P291S/Q151K/Q38R/Q45L/S2A/S58T/T264A/V71I/Y165I/Y273L/Y87F); assay type: cell-based; conditions: 5 h
[7] = target: T4, MLKL-NLuc (Oplophorus gracilirostris, UniProt Q9GV45, A31E/A60N/A81I/F95D/I117V/K70R/L54V/L99Q/M102K/N193R/P142E/Q151K/Q38R/Q45L/V71I/Y165I); assay type: cell-based; conditions: 5 h
T4 construct: expressed in transfected cells; host or cells: MLKL-/- HT29 (A12); MLKL-/-CASP8-/- HT29 (A24); doxycycline-inducible

[8] = target: T5, NanoLuc-SLC38A2 (Oplophorus gracilirostris, UniProt Q9GV45, A31E/A60N/A81I/F95D/I117V/K70R/L54V/L99Q/M102K/N193R/P142E/Q151K/Q38R/Q45L/V71I/Y165I); test: Western blot of 293T cells expressing NanoLuc-SLC38A2; assay type: cell-based; conditions: 125-500 nM, 5 h
T5 construct: expressed in transfected cells; host or cells: 293T, doxycycline-induced
Experimental: as §1, §2

Sequence of Halo-EGFP-NanoLuc-FKBP^F36V (H-E-N-F) fusion protein (Q9GV45 other isoform, or with tags, fused parts or gaps with the stated changes): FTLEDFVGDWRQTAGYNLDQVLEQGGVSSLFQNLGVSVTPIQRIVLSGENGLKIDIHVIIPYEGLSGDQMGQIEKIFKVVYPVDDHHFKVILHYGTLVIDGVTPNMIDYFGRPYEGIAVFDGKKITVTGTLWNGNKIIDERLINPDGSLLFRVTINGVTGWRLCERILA
Sequence of Halo-EGFP-NanoLuc-FKBP^F36V (H-E-N-F) fusion protein (P0A3G2 other isoform, or with tags, fused parts or gaps with the stated changes): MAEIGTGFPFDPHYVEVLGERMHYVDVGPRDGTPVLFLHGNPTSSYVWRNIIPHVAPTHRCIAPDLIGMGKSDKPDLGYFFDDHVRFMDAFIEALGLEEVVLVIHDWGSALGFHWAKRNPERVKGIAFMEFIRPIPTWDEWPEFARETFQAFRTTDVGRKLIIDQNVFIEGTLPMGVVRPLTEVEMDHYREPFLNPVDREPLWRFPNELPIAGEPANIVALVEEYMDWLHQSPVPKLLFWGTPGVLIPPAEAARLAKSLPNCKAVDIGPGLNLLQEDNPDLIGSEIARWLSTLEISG
Sequence of Halo-EGFP-NanoLuc-FKBP^F36V (H-E-N-F) fusion protein (P62942 whole entry F37V, the tested form may be a part): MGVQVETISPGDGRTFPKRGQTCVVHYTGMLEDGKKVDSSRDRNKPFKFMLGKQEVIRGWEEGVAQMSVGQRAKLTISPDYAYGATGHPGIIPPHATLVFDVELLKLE
Sequence of MLKL-FKBP^F36V (P62942 whole entry F37V): as the sequence (P62942 whole entry F37V, the tested form may be a part) above
T2 sequence (P62942 whole entry F37V): as the sequence (P62942 whole entry F37V, the tested form may be a part) above
T1 sequence (P62942 whole entry F37V): as the sequence (P62942 whole entry F37V, the tested form may be a part) above
T4 sequence (Q9GV45 other isoform, or with tags, fused parts or gaps with the stated changes): as the sequence (Q9GV45 other isoform, or with tags, fused parts or gaps with the stated changes) above
T5 sequence (Q9GV45 other isoform, or with tags, fused parts or gaps with the stated changes): as above
T3 sequence (Q9GV45 other isoform, or with tags, fused parts or gaps with the stated changes): as above

## CC[C@H](C(=O)N1CCCC[C@H]1C(=O)O[C@H](CCc1ccc(OC)c(OC)c1)c1ccccc1OCC(=O)NCCCCCCC(=O)N[C@H](C(=O)N1C[C@H](O)C[C@H]1C(=O)N[C@@H](C)c1ccc(-c2scnc2C)cc1)C(C)(C)C)c1cc(OC)c(OC)c(OC)c1 [FV1]
[1]
  MLKL-FKBP^F36V protein level by Western blot: no detectable protein
[2]
  depletion of caspase-8-FKBP^F36V: could be depleted
[3]; 5 h pre-treatment, then TSZ 24 h
  concentration sustaining cell survival over 24 h: 3.9 nM
[3]; degrader 3.9nM
  TNF+911+zVAD (PI exclusion): 77.6 and 82.1 and 75.3
[3]; degrader 7.8nM
  TNF+911+zVAD (PI exclusion): 84.5 and 86.7 and 79.8
[3]; degrader 31.25nM
  TNF+911+zVAD (PI exclusion): 80.9 and 86.7 and 82.1
[3]; degrader 62.5nM
  TNF+911+zVAD (PI exclusion): 79.4 and 87 and 83.1
[3]; degrader 250nM
  TNF+911+zVAD (PI exclusion): 80.6 and 84.5 and 80.8
[3]; degrader 500nM
  TNF+911+zVAD (PI exclusion): 69.7 and 81.6 and 78.5
[3]; degrader 1000nM
  TNF+911+zVAD (PI exclusion): 63.8 and 77.3 and 74.7
[4]
  degradation of murine MLKL-FKBP^F36V: comparable degradation

## CCc1cccc(N(CC)C(=O)Cn2c(C(=O)NC3CCC(C(=O)NCCCCCCCC(=O)NCCCCNc4cccc5c4C(=O)N(C4CCC(=O)NC4=O)C5=O)CC3)cc3ccccc32)c1 (stereo not shown) [NC4]
[5]
  degradation of MLKL-NanoLuc, comparison of NanoTACs: most effective degradation profile
[6]; 125-500 nM
  degradation of the H-E-N-F substrate protein by Western blot, comparison of NanoTACs: consistently outperforming the first analogue NC1
[6]; Western blot
  low concentration triggering degradation of the fusion protein: ~ 30 nM
[7]
  depletion of MLKL-NLuc: could be depleted
[8]
  NanoLuc-SLC38A2 level by Western blot: reduction in Nanoluc-SLC38A2
